ChEMBL document CHEMBL4842357, “Discovery of Novel Apigenin-Piperazine Hybrids as Potent and Selective Poly (ADP-Ribose) Polymerase-1 (PARP-1) Inhibitors for the Treatment of Cancer” (J Med Chem, 2021)

Key:
[1] = biological target: T1, Poly [ADP-ribose] polymerase 1 (Homo sapiens, UniProt P09874); test: Inhibition of recombinant human full-length PARP-1 using biotinylated substrate
[2] = biological target: T2, Poly [ADP-ribose] polymerase 2 (Homo sapiens, UniProt Q9UGN5); test: Inhibition of recombinant human full-length PARP-2 using biotinylated substrate
Homo sapiens [3] = species: Homo sapiens; test: Selectivity index, ratio of IC50 for inhibition of recombinant human full-length PARP-2 to IC50 for inhibition of recombinant human full-length PARP-1
[4] = biological target: T1, Poly [ADP-ribose] polymerase 1; test: Inhibition of PARP-1 (unknown origin)
[5] = biological target: T2, Poly [ADP-ribose] polymerase 2; test: Inhibition of PARP-2 (unknown origin)
Homo sapiens [6] = species: Homo sapiens; test: Selectivity index, ratio of IC50 for PARP-2 (unknown origin) to IC50 for PARP-1 (unknown origin)
[7] = Acute toxicity in ICR mouse assessed as change in body weight at 1000 mg/kg, po administered only once at day 1 and measured every two days for 14 days; assay type: organism-based; conditions: in vivo, 336 h, time 14 day
[8] = Acute toxicity in ICR mouse assessed as change in blood routine at 1000 mg/kg, po administered only once at day 1 and measured every two days for 14 days; assay type: organism-based; conditions: in vivo, 336 h, time 14 day
[9] = Hepatotoxicity in ICR mouse assessed as effect on ALT level at 1000 mg/kg, po administered only once at day 1 and measured every two days for 14 days (reference value: 28.6 +/- 6.9 U/L); assay type: toxicity, organism-based; conditions: in vivo, 336 h, time 14 day
[10] = Hepatotoxicity in ICR mouse assessed as effect on AST level at 1000 mg/kg, po administered only once at day 1 and measured every two days for 14 days (reference value: 61.5 +/- 3.7 U/L); assay type: toxicity, organism-based; conditions: in vivo, 336 h, time 14 day
[11] = Renal toxicity in ICR mouse assessed as effect on BUN level at 1000 mg/kg, po administered only once at day 1 and measured every two days for 14 days (reference value: 8.9 +/- 0.9 mmol/L); assay type: organism-based; conditions: in vivo, 336 h, time 14 day
CYP2C19 = CYP2C19 (Homo sapiens, UniProt P33261); test: Inhibition of CYP2C19 (unknown origin) at 10 uM incubated for 10 to 30 mins in presence of NADPH regeneration system by microplate analysis relative to control; assay type: ADME; conditions: time 10-30 min
CYP2D6 = CYP2D6 (Homo sapiens, UniProt P10635); test: Inhibition of CYP2D6 (unknown origin) at 10 uM incubated for 10 to 30 mins in presence of NADPH regeneration system by microplate analysis relative to control; assay type: ADME; conditions: time 10-30 min
CYP2C9 = CYP2C9 (Homo sapiens, UniProt P11712); test: Inhibition of CYP2C9 (unknown origin) at 10 uM incubated for 10 to 30 mins in presence of NADPH regeneration system by microplate analysis relative to control; assay type: ADME; conditions: time 10-30 min
CYP1A2 = biological target: T3, CYP1A2 (Homo sapiens, UniProt P05177); test: Inhibition of CYP1A2 (unknown origin) at 10 uM incubated for 10 to 30 mins in presence of NADPH regeneration system by microplate analysis relative to control; assay type: ADME; conditions: time 10-30 min
T3 sequence (P05177 whole entry): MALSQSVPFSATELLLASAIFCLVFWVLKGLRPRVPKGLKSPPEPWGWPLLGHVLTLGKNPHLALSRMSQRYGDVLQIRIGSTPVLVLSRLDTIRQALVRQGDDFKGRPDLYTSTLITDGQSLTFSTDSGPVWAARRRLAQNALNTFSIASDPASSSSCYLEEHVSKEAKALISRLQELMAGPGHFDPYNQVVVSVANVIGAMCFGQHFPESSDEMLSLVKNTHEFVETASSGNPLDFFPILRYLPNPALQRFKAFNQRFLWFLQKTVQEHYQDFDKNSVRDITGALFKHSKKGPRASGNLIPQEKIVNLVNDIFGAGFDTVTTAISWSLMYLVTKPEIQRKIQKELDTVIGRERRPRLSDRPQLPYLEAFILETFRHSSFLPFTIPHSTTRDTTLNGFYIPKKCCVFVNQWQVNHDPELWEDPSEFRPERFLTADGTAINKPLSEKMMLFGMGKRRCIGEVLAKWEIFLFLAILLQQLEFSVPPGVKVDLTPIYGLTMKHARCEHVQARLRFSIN

CYP3A4 = CYP3A4 (Homo sapiens, UniProt P08684); test: Inhibition of CYP3A4 (unknown origin) at 10 uM incubated for 10 to 30 mins in presence of NADPH regeneration system by microplate analysis relative to control; assay type: ADME; conditions: time 10-30 min
[12] = Stability in rat plasma assessed as compound remaining after 0.5 hrs; assay type: ADME, cell-free; conditions: read-out: Stabilty
[13] = Stability in rat plasma assessed as compound remaining after 4 hrs; assay type: ADME, cell-free; conditions: read-out: Stabilty
[14] = biological target: T1, Poly [ADP-ribose] polymerase 1; test: Binding affinity to recombinant human PARP-1 by SPR analysis
[15] = biological target: T2, Poly [ADP-ribose] polymerase 2; test: Binding affinity to recombinant human PARP-2 by SPR analysis
[16] = Toxicity in BALB/c nude mouse xenografted with human A549 cells assessed as change in body weight at 25 to 50 mg/kg, po administered once daily measured for 28 days in presence of CBP; assay type: organism-based; conditions: in vivo, 672 h, dose 25-50 mg/kg, time 28 day
[17] = Toxicity in BALB/c mouse xenografted with human SK-OV-3 cells assessed as change in body weight at 25 to 50 mg/kg, po administered once daily measured for 28 days; assay type: organism-based; conditions: in vivo, 672 h, dose 25-50 mg/kg, time 28 day
SK-OV-3 = test: Antitumor activity against human SK-OV-3 cells xenografted in BALB/c nude mouse assessed as relative tumor volume at 50 mg/kg, po administered once daily for 12 days; assay type: functional; conditions: time 12 day
[18] = Cmax in Sprague-Dawley rat at 5 mg/kg, iv; assay type: ADME, organism-based; design: route intravenous, dose 5 mg/kg; conditions: in vivo
[19] = Cmax in Sprague-Dawley rat at 50 mg/kg, po; assay type: ADME, organism-based; design: route oral, dose 50 mg/kg; conditions: in vivo
[20] = AUC(0 to infinity) in Sprague-Dawley rat at 5 mg/kg, iv; assay type: ADME, organism-based; design: route intravenous, time infinity, dose 5 mg/kg; conditions: in vivo
[21] = AUC(0 to infinity) in Sprague-Dawley rat at 50 mg/kg, po; assay type: ADME, organism-based; design: time infinity, route oral, dose 50 mg/kg; conditions: in vivo
[22] = Tmax in Sprague-Dawley rat at 5 mg/kg, iv; assay type: ADME, organism-based; conditions: in vivo
[23] = Tmax in Sprague-Dawley rat at 50 mg/kg, po; assay type: ADME, organism-based; conditions: in vivo
[24] = Half life in Sprague-Dawley rat at 5 mg/kg, iv; assay type: ADME, organism-based; conditions: in vivo
[25] = Half life in Sprague-Dawley rat at 50 mg/kg, po; assay type: ADME, organism-based; conditions: in vivo
[26] = MRT in Sprague-Dawley rat at 5 mg/kg, iv; assay type: ADME, organism-based; conditions: in vivo
[27] = MRT in Sprague-Dawley rat at 50 mg/kg, po; assay type: ADME, organism-based; conditions: in vivo
[28] = Total plasma clearance in Sprague-Dawley rat at 5 mg/kg, iv; assay type: ADME, organism-based
[29] = Volume of distribution at steady state in Sprague-Dawley rat at 5 mg/kg, iv; assay type: ADME, organism-based; conditions: in vivo, read-out: Vdss
[30] = Oral bioavailability in Sprague-Dawley rat at 50 mg/kg; assay type: ADME, organism-based; conditions: in vivo
[31] = Drug distribution in tumor of mouse xenografted with human SK-OV-3 cells at 100 mg/kg, po after 1 hr by LC-MS analysis; assay type: ADME, organism-based, Neoplasm; conditions: in vivo
[32] = Drug distribution in liver of mouse xenografted with human SK-OV-3 cells at 100 mg/kg, po after 9 hrs by LC-MS analysis; assay type: ADME, organism-based; conditions: in vivo
[33] = Drug distribution in spleen of mouse xenografted with human SK-OV-3 cells at 100 mg/kg, po after 9 hrs by LC-MS analysis; assay type: ADME, organism-based; conditions: in vivo
[34] = Acute toxicity in ICR mouse assessed as mortality at 200 to 1000 mg/kg, po administered for 14 days; assay type: organism-based; conditions: in vivo, 336 h, dose 200-1000 mg/kg, time 14 day
[35] = Acute toxicity in ICR mouse assessed as abnormalities at 200 to 1000 mg/kg, po administered for 14 days; assay type: organism-based; conditions: in vivo, 336 h, dose 200-1000 mg/kg, time 14 day
[36] = Subacute toxicity in ICR mouse assessed as death at 1000 mg/kg, po administered for 14 days; assay type: organism-based; conditions: in vivo, 336 h, time 14 day
[37] = Subacute toxicity in ICR mouse assessed as clinical abnormalities at 1000 mg/kg, po administered for 14 days; assay type: organism-based; conditions: in vivo, 336 h, time 14 day
[38] = Subacute toxicity in ICR mouse assessed as weight abnormalities at 1000 mg/kg, po administered for 14 days; assay type: organism-based; conditions: in vivo, 336 h, time 14 day
[39] = Toxicity in ICR mouse assessed as effect on main visceral organs at 1000 mg/kg, ig administered for 14 days by H and E analysis; assay type: organism-based; conditions: in vivo, po, 336 h, time 14 day

T1 sequence (P09874 whole entry): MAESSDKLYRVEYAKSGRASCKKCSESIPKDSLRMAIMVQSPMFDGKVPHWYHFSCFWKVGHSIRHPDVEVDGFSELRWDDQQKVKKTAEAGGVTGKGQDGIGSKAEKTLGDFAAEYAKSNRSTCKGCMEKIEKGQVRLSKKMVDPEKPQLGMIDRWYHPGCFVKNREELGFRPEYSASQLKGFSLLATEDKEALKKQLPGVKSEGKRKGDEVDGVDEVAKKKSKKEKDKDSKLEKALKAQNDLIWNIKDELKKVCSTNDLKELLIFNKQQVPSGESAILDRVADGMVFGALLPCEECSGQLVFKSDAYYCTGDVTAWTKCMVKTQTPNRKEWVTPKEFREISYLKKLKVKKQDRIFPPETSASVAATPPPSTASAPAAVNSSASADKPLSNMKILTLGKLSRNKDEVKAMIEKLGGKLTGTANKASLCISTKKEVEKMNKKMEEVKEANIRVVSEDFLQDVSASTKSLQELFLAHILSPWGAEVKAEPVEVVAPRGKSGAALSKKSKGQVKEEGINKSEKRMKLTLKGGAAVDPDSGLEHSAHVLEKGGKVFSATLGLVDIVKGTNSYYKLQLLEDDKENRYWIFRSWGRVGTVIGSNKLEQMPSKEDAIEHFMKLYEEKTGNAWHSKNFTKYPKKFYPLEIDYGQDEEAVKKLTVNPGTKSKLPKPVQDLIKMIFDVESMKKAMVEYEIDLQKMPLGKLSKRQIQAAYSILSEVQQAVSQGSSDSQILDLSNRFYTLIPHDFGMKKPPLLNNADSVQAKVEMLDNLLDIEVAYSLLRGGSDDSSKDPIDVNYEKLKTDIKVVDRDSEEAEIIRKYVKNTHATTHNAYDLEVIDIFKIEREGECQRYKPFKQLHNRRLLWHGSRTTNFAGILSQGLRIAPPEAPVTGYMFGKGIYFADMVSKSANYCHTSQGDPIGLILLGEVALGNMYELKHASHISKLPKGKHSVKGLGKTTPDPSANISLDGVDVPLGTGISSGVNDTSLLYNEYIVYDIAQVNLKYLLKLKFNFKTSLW
T2 sequence (Q9UGN5 whole entry): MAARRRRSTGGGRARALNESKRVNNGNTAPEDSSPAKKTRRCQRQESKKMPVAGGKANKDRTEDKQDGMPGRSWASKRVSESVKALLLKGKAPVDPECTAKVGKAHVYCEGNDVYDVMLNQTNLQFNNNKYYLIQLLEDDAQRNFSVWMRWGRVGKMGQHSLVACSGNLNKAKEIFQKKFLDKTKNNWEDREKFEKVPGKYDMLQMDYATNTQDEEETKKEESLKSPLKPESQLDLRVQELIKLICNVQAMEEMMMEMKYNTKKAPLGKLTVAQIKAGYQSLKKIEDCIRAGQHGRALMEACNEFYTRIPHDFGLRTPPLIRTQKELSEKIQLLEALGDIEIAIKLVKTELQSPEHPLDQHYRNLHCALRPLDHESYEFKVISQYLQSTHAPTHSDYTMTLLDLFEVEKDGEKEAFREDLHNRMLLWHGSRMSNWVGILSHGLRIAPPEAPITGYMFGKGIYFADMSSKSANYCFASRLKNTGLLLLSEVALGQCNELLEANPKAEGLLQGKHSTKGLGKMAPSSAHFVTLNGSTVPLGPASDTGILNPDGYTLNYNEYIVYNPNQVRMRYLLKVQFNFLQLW
CYP2D6, sequence (P10635 whole entry): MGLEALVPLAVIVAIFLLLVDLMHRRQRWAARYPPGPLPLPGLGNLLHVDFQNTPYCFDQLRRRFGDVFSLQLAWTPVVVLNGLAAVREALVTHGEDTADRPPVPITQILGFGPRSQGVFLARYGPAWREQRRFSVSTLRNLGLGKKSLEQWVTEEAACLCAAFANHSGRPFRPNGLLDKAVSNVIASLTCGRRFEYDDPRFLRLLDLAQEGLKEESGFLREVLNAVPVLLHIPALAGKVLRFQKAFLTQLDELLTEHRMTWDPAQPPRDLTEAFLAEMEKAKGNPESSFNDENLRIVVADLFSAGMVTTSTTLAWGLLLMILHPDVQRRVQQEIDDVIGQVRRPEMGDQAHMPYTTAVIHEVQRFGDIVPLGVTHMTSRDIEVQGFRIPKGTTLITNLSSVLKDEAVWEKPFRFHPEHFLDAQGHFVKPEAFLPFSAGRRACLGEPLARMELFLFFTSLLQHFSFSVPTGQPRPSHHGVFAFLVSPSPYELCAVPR
CYP2C19, sequence (P33261 whole entry): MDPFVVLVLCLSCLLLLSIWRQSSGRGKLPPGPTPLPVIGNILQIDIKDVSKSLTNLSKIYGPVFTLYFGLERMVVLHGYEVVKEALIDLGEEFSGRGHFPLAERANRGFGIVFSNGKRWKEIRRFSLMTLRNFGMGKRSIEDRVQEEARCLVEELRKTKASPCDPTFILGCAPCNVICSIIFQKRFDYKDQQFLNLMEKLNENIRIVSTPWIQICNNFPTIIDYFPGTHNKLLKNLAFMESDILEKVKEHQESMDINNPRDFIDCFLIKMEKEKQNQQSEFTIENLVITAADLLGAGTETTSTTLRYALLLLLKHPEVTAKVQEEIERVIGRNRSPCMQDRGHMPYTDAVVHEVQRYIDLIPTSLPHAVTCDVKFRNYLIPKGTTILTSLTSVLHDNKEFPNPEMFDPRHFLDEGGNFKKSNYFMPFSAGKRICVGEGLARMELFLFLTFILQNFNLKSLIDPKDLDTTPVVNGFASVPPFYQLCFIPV
CYP3A4, sequence (P08684 whole entry): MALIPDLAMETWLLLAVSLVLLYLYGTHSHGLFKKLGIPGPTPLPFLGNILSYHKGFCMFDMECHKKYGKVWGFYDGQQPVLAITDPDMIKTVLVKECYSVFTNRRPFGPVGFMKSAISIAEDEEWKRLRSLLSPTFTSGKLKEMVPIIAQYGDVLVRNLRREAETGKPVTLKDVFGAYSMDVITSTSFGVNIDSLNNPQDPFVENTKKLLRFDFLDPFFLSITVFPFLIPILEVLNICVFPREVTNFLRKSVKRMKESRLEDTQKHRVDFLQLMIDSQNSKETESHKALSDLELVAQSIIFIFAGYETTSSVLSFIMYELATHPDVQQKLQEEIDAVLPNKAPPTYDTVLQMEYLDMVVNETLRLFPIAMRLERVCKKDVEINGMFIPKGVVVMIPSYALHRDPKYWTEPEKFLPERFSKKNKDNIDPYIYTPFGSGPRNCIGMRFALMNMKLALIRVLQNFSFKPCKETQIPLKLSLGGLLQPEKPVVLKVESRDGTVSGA
CYP2C9, sequence (P11712 whole entry): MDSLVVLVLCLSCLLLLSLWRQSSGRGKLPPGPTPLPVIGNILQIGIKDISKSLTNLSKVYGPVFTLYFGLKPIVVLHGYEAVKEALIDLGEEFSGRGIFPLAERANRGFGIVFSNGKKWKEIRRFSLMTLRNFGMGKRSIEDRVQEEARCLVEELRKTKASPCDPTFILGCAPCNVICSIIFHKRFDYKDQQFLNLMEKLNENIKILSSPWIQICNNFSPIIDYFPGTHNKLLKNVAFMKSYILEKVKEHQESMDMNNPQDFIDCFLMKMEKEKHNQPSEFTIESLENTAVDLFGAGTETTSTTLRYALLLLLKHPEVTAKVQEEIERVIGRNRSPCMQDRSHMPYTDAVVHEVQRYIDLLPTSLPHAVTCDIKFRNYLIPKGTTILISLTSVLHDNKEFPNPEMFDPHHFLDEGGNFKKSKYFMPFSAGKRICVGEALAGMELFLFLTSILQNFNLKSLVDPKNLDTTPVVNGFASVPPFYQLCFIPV

O=c1cc(-c2ccc(O)c(-c3c(O)cc(O)c4c(=O)cc(-c5ccc(O)cc5)oc34)c2)oc2cc(O)cc(O)c12 [AMENTOFLAVONE]
IC50 [1]: 187 nM | IC50 [2]: 10300 nM | Ratio IC50 (Homo sapiens [3]): 55.2 | IC50 [4]: 0.2 nM | IC50 [5]: 10300 nM | Ratio IC50 (Homo sapiens [6]): 52

O=c1cc(-c2ccc(O)cc2)oc2c(CN3CCN(Cc4cccs4)CC3)c(O)cc(O)c12
IC50 [1]: 14.7 nM | IC50 [2]: 900 nM | Activity [7]: Non-Toxic | Activity [8]: Non-Toxic | Activity [9]: 27.6 U/L | Activity [10]: 64.1 U/L | Activity [11]: 9 mmol/L | inhibition at 10 µM (CYP2C19): 70.4% | inhibition at 10 µM (CYP2D6): 92.7% | inhibition at 10 µM (CYP2C9): 94.7% | inhibition at 10 µM (CYP1A2): 85.2% | inhibition at 10 µM (CYP3A4): 93.4% | remaining at 0.5 h [12]: 83.4% | remaining at 4 h [13]: 46.2% | Kd [14]: 55 nM | Kd [15]: 605 nM

Cl.Cl.O=c1cc(-c2ccc(O)cc2)oc2c(CN3CCN(Cc4cccs4)CC3)c(O)cc(O)c12
Activity [16]: Non-Toxic | Activity [17]: Non-Toxic | Activity (SK-OV-3): 0.74 | Cmax [18]: 2880 ng/mL | Cmax [19]: 470 ng/mL | AUC(0-inf) [20]: 1370 ng·h/mL | AUC(0-inf) [21]: 3630 ng·h/mL | Tmax [22]: 1.8 min | Tmax [23]: 1.5 h | half-life [24]: 3.19 h | half-life [25]: 10.7 h | MRT [26]: 3.14 h | MRT [27]: 13 h | clearance [28]: 60.5 mL/min/kg | Vd [29]: 11.4 L/kg | bioavailability [30]: 26.5% | Drug uptake [31]: Active | Drug uptake [32]: Active | Drug uptake [33]: Not Active | Activity [34]: Non-Toxic | Activity [35]: Non-Toxic | Activity [36]: Non-Toxic | Activity [37]: Non-Toxic | Activity [38]: Non-Toxic | Activity [39]: Non-Toxic
